Biological target: T1, Ba/F3 cells expressing the p210Bcr-Abl-T315I theramutein (Homo sapiens, UniProt P00519, T315I, cells depend on it)
T1 construct: IC50 activity category, T315I; T315I cell line; even at 10 μM concentration; fused on or other part: P11274 (Breakpoint cluster region protein)
Assay: cellular assay system: growth inhibition (cell count), Ba/F3 T315I cell line
Assay type: cell-based, murine
Settings: concentration inhibiting growth of the cell line by 50%, read-out: IC50 activity category, T315I

SMILES | GI50 [µM]
Oc1ccccc1/C=N/Nc1ncc(F)c(N2CCOCC2)n1 | < 10
Cc1ccccc1/C=N/Nc1ncc(F)c(N2CCOCC2)n1 | > 10
Cc1ccc(/C=N/Nc2ncc(F)c(N3CCOCC3)n2)cc1 | > 10
O=C(Nc1cccc(C(F)(F)F)c1)c1cc(Cl)c(O)c(/C=N\Nc2ncc(F)c(N3CCOCC3)n2)c1 | < 1
Fc1cnc(N/N=C/c2ccc(-c3cccc(C(F)(F)F)c3)cn2)nc1N1CCOCC1 | < 1
Cc1cccc(Cl)c1NC(=O)C/C=N/Nc1ncc(F)c(N2CCOCC2)n1 | > 10
Fc1cnc(N/N=C/c2ccc(Nc3cccc(-n4ccnc4)c3)cn2)nc1N1CCOCC1 | < 1
Cc1cc(Nc2ccc(/C=N/Nc3ncc(F)c(N4CCOCC4)n3)nc2)cc(N2CCNCC2)c1 | < 1
O=C(NNc1ncc(F)c(N2CCOCC2)n1)c1ccc(Nc2cccc(C(F)(F)F)c2)cn1 | < 1
Cc1cc(Nc2cccc(C(F)(F)F)c2)ccc1/C=N/Nc1ncc(F)c(N2CCOCC2)n1 | > 10
Fc1cnc(N/N=C/c2ccc(Nc3cccc(C(F)(F)F)c3)cn2)nc1-c1cncc(-c2ccccc2)c1 | < 1
Oc1cccc(Nc2cccc(Nc3ccc(/C=N/Nc4ncc(F)c(N5CCOCC5)n4)nc3)c2)c1 | < 1

The remaining lines, values ahead:

GI50 [µM] | SMILES
< 1 | Fc1cnc(N/N=C/c2ccccn2)nc1N1CCOCC1
< 1 | Oc1ccc(Br)cc1/C=N/Nc1ncc(F)c(N2CCOCC2)n1
> 10 | Fc1cnc(N/N=C/c2ccccc2)nc1N1CCOCC1
> 10 | O=C(Nc1cccc(C(F)(F)F)c1)c1cccc(/C=N/Nc2ncc(F)c(N3CCOCC3)n2)n1
< 1 | O=C(Nc1cccc(C(F)(F)F)c1)c1ccc(/C=N/Nc2ncc(F)c(N3CCOCC3)n2)nc1
> 10 | O=C(C/C=N/Nc1ncc(F)c(N2CCOCC2)n1)Nc1cccc(C(F)(F)F)c1
< 1 | Fc1cnc(N/N=C/c2ccc(Nc3ccc(N4CCOCC4)cc3)cn2)nc1N1CCOCC1
< 1 | Fc1cnc(N/N=C/c2ccc(Nc3ccc(-c4ccccn4)c(Cl)c3)cn2)nc1N1CCOCC1
> 10 | CC(C(=O)O)c1ccc(Nc2ccc(/C=N/Nc3ncc(F)c(N4CCOCC4)n3)nc2)cc1 (centres unmarked)
< 1 | CN(C)c1cc(O)cc(Nc2ccc(/C=N/Nc3ncc(F)c(N4CCOCC4)n3)nc2)c1
< 10 | Fc1cnc(N/N=C/c2ccc(Nc3cccc(C(F)(F)F)c3)cn2)nc1-c1cncc(C2CC2)c1
